# Assay results as given in US12180187B2, “1-phenyl-5-azinylpyrazolyl-3-oxyalkyl acids and their use for controlling unwanted plant growth” (BAYER AKTIENGESELLSCHAFT, priority 2019, dated 2024).
# How the values were obtained:
# ECHCG = experiment: Pre-emergence action against ECHCG, 1280 g/ha; assay type: in vivo, Echinochloa crus-galli; conditions: visual scoring after about 3 weeks vs untreated controls, 100% = plants have died, 0% = like control plants; for pest or weed control at 1280 g/ha: Echinochloa crus-galli, 504 h
# How it was run: (§1)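 In greenhouse pots of sandy loam, sown weed seeds were covered with soil and treated pre-emergence with the compound in water (600 L/ha, 0.5% additive). Efficacy was assessed visually as percent of untreated control after about 3 weeks.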
# POAAN [1] = experiment: Pre-emergence action against POAAN, 1280 g/ha; assay type: in vivo, Poa annua; conditions: visual scoring after about 3 weeks vs untreated controls, 100% = plants have died, 0% = like control plants; for pest or weed control at 1280 g/ha: Poa annua, 504 h
# How it was run: as §1
# SETVI [2] = experiment: Pre-emergence action against SETVI, 1280 g/ha; assay type: in vivo, Setaria viridis; conditions: visual scoring after about 3 weeks vs untreated controls, 100% = plants have died, 0% = like control plants; for pest or weed control at 1280 g/ha: Setaria viridis, 504 h
# How it was run: as §1
# AMARE [3] = experiment: Pre-emergence action against AMARE, 1280 g/ha; assay type: in vivo, Amaranthus retroflexus; conditions: scored visually after about 3 weeks vs untreated controls (100% = plants have died); for pest or weed control at 1280 g/ha: Amaranthus retroflexus, 504 h
# How it was run: as §1
# MATIN [4] = experiment: Pre-emergence action against MATIN, 1280 g/ha; assay type: in vivo, Tripleurospermum inodorum (Matricaria inodora); conditions: scored visually after about 3 weeks vs untreated controls (100% = plants have died); for pest or weed control at 1280 g/ha: Tripleurospermum inodorum, 504 h
# How it was run: as §1
# STEME = experiment: Pre-emergence action against STEME, 1280 g/ha; assay type: in vivo, Stellaria media; conditions: scored visually after about 3 weeks vs untreated controls (100% = plants have died); for pest or weed control at 1280 g/ha: Stellaria media, 504 h
# How it was run: as §1
# ALOMY = experiment: Pre-emergence action at 320 g/ha against ALOMY; assay type: in vivo, Alopecurus myosuroides; conditions: scored visually after about 3 weeks vs untreated controls (100% = plants have died); for pest or weed control at 320 g/ha: Alopecurus myosuroides, 504 h
# How it was run: (§2)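 Visual % scoring at about 3 weeks post-treatment against untreated pots (0% = like control, 100% = dead), greenhouse-grown. Compounds applied at 320 g/ha as aqueous WP/EC suspension or emulsion plus 0.5% additive, 600 l/ha water, onto covering soil of freshly sown pots before emergence.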
# AVEFA = experiment: Pre-emergence action at 320 g/ha against AVEFA; assay type: in vivo; conditions: visual scoring after about 3 weeks vs untreated controls; for pest or weed control at 320 g/ha: Avena fatua, 504 h
# How it was run: as §2
# DIGSA = experiment: Pre-emergence action at 320 g/ha against DIGSA; assay type: in vivo, Digitaria sanguinalis; conditions: visual scoring after about 3 weeks vs untreated controls; for pest or weed control at 320 g/ha: Digitaria sanguinalis, 504 h
# How it was run: as §2
# SETVI [5] = experiment: Pre-emergence action at 320 g/ha against SETVI; assay type: in vivo, Setaria viridis; conditions: visual scoring after about 3 weeks vs untreated controls; for pest or weed control at 320 g/ha: Setaria viridis, 504 h
# How it was run: as §2
# AMARE [6] = experiment: Pre-emergence action at 320 g/ha against AMARE; assay type: in vivo, Amaranthus retroflexus; conditions: visual scoring after about 3 weeks vs untreated controls; for pest or weed control at 320 g/ha: Amaranthus retroflexus, 504 h
# How it was run: as §2
# MATIN [7] = experiment: Pre-emergence action at 320 g/ha against MATIN; assay type: in vivo, Tripleurospermum inodorum (Matricaria inodora); conditions: visual scoring after about 3 weeks vs untreated controls; for pest or weed control at 320 g/ha: Tripleurospermum inodorum, 504 h
# How it was run: as §2
# POLCO = experiment: Pre-emergence action at 320 g/ha against POLCO; assay type: in vivo, Fallopia convolvulus (Polygonum convolvulus); conditions: visual scoring after about 3 weeks vs untreated controls; for pest or weed control at 320 g/ha: Fallopia convolvulus, 504 h
# How it was run: as §2
# POAAN [8] = experiment: Post-emergence action against POAAN, 1.28 kg/ha; assay type: in vivo, Poa annua; conditions: dosage 1280 g/ha, visual rating about 3 weeks after treatment vs untreated controls; for pest or weed control at 1280 g/ha: Poa annua, 504 h
# How it was run: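 Activity scored visually roughly 3 weeks after treatment against untreated plants (0% = as control, 100% = dead). Plants grown in sandy loam in greenhouse, treated at one-leaf stage, 2–3 weeks post-sowing, with WP/EC spray containing 0.5% additive at 600 l/ha.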
SMILES,Pre-emergence action against ECHCG (ECHCG) [%],Pre-emergence action against POAAN (POAAN [1]) [%],Pre-emergence action against SETVI (SETVI [2]) [%],Pre-emergence action against AMARE (AMARE [3]) [%],Pre-emergence action against MATIN (MATIN [4]) [%],Pre-emergence action against STEME (STEME) [%],Pre-emergence action at 320 g/ha against ALOMY in % (ALOMY) [%],Pre-emergence action against AVEFA in % (AVEFA) [%],Pre-emergence action against DIGSA in % (DIGSA) [%],Pre-emergence action against SETVI in % (SETVI [5]) [%],Pre-emergence action against AMARE in % (AMARE [6]) [%],Pre-emergence action against MATIN in % (MATIN [7]) [%],Pre-emergence action against POLCO in % (POLCO) [%],Post-emergence action against POAAN (POAAN [8]) [%],pest or weed control at 1280 g/ha (ECHCG) [%],pest or weed control at 1280 g/ha (POAAN [1]) [%],pest or weed control at 1280 g/ha (SETVI [2]) [%],pest or weed control at 1280 g/ha (AMARE [3]) [%],pest or weed control at 1280 g/ha (MATIN [4]) [%],pest or weed control at 1280 g/ha (STEME) [%],further results
COC(=O)COc1nn(-c2ccc(F)cc2)c(-c2ccc(F)nc2)c1Br [VII-002],100,100,100,100,90,100,90,80,100,90,100,100,100,100,,,,,,,
"O=C(O)COc1nn(-c2ccccc2F)c(-c2ccc(F)nc2)c1Br [VII-003, {[4-Bromo-1-(2-fluorophenyl)-5-(6-fluoropyridin-3-yl)-1H-pyrazol-3-yl]oxy}acetic acid]",,,,,,,,,,,,,,,100,100,100,100,100,100,pest or weed control at 320 g/ha (ALOMY): 100%; pest or weed control at 320 g/ha (AVEFA): 90%; pest or weed control at 320 g/ha (DIGSA): 100%; pest or weed control at 320 g/ha (SETVI [5]): 100%; pest or weed control at 320 g/ha (AMARE [6]): 100%; pest or weed control at 320 g/ha (MATIN [7]): 90%; pest or weed control at 320 g/ha (POLCO): 90%; pest or weed control at 1280 g/ha (POAAN [8]): 100%
COC(=O)[C@@H](C)Oc1nn(-c2ccccc2)c(-c2cccnc2)c1Br [VII-008],100,100,100,100,100,100,100,80,90,100,100,100,100,100,,,,,,,
CCOC(=O)COc1nn(-c2ccccc2F)c(-c2ccc(F)nc2)c1C(F)(F)F [VII-010],100,100,100,100,90,100,100,90,100,100,100,100,90,100,,,,,,,
"CCOC(=O)COc1nn(-c2ccccc2F)c(-c2ccc(F)nc2)c1Br [VII-012, Ethyl {[4-bromo-1-(2-fluorophenyl)-5-(6-fluoropyridin-3-yl)-1H-pyrazol-3-yl]oxy}acetate]",,,,,,,,,,,,,,,100,100,100,100,100,90,pest or weed control at 320 g/ha (ALOMY): 100%; pest or weed control at 320 g/ha (AVEFA): 90%; pest or weed control at 320 g/ha (DIGSA): 100%; pest or weed control at 320 g/ha (SETVI [5]): 100%; pest or weed control at 320 g/ha (AMARE [6]): 100%; pest or weed control at 320 g/ha (MATIN [7]): 90%; pest or weed control at 320 g/ha (POLCO): 90%; pest or weed control at 1280 g/ha (POAAN [8]): 100%
CCOC(=O)COc1nn(-c2ccccc2F)c(-c2cncc(F)c2)c1Br [VII-015],100,100,100,100,100,100,100,90,100,100,100,100,100,100,,,,,,,
CCOC(=O)COc1nn(-c2ccc(F)cc2F)c(-c2ccc(F)nc2)c1Cl [VII-016],100,100,100,100,90,100,100,90,100,100,100,80,90,100,,,,,,,
COC(=O)COc1nn(-c2ccccc2)c(-c2ccc(F)nc2)c1Br [VII-018],100,100,100,100,90,100,100,80,100,100,100,90,100,100,,,,,,,
CCOC(=O)C(C)Oc1nn(-c2ccccc2F)c(-c2ccc(F)nc2)c1Br (centres unmarked) [VII-019],100,100,100,100,90,100,100,90,100,100,100,100,100,100,,,,,,,
"COC(=O)C(C)Oc1nn(-c2ccccc2)c(-c2ccc(F)nc2)c1Cl (centres unmarked) [VII-023, Methyl 2-{[4-chloro-5-(6-fluoropyridin-3-yl)-1-phenyl-1H-pyrazol-3-yl]oxy}propanoate]",,,,,,,,,,,,,,,100,100,100,100,90,100,pest or weed control at 320 g/ha (ALOMY): 100%; pest or weed control at 320 g/ha (AVEFA): 90%; pest or weed control at 320 g/ha (DIGSA): 100%; pest or weed control at 320 g/ha (SETVI [5]): 100%; pest or weed control at 320 g/ha (AMARE [6]): 100%; pest or weed control at 320 g/ha (MATIN [7]): 90%; pest or weed control at 320 g/ha (POLCO): 100%; pest or weed control at 1280 g/ha (POAAN [8]): 100%
